Measurements published in US20220289794A1, “SYNTHETIC ANTIMICROBIAL PEPTIDES” (priority 2019, published 2022).

Legend:
B. subtilis (ATCC-6633) = test: Broad-spectrum activity against Gram-Positive bacteria (MIC); type: cell-based; set-up: unit not given here
E. coli (ATCC BAA-2452) = test: Broad-spectrum activity against Gram-Negative bacteria (MIC); type: cell-based; conditions: Table 16, Gram-negative panel
B. cereus (ATCC-13061) = test: Broad-spectrum activity against Gram-Positive bacteria (MIC); type: cell-based; set-up: unit not given here
[1] = system: A. baumannii (ATCC BAA-1605); test: Broad-spectrum activity against Gram-Negative bacteria (MIC); type: cell-based; conditions: Table 16, Gram-negative panel
[2] = system: P. aeruginosa (ATCC 10145); test: as above; type: cell-based; conditions: Table 16, Gram-negative panel
[3] = system: P. aeruginosa (ATCC BAA-1744); test: as above; type: cell-based; conditions: Table 16, Gram-negative panel
[4] = system: Methicillin-resistant Staphylococcus aureus MRSA (ATCC BAA-1556); conditions: MRSA ATCC BAA-1556
S. aureus ATCC 29213 = conditions: S. aureus ATCC 29213
[5] = system: Pseudomonas aeruginosa (ATCC 27883); conditions: P. aeruginosa ATCC 27883
[6] = system: Escherichia coli (ATCC 25922); conditions: E. coli ATCC 25922
[7] = system: Klebsiella pneumoniae (ATCC BAA-1705); conditions: Table 16, Gram-negative panel
[8] = system: Enterococcus faecium ATCC 27270; conditions: E. faecium ATCC 27270
[9] = system: Enterococcus faecium ATCC 700221; conditions: E. faecium ATCC 700221
[10] = system: Klebsiella pneumoniae ATCC 13883; conditions: Table 16, Gram-negative panel
[11] = system: Enterococcus faecalis ATCC 29212; conditions: E. faecalis ATCC 29212
[12] = system: Enterococcus faecalis ATCC 51575; conditions: E. faecalis ATCC 51575
[13] = system: Streptococcus pneumoniae ATCC 49619; conditions: S. pneumoniae ATCC 49619
[14] = system: Streptococcus pneumoniae ATCC 51938; conditions: S. pneumoniae ATCC 51938

| Substance | Broad-spectrum activity B. subtilis (ATCC-6633) (B. subtilis (ATCC-6633)) | MIC E. coli (ATCC BAA-2452) (E. coli (ATCC BAA-2452)) | Broad-spectrum activity B. cereus (ATCC-13061) (B. cereus (ATCC-13061)) | MIC A. baumannii (ATCC BAA-1605) [1] | MIC P. aeruginosa (ATCC 10145) [2] | MIC P. aeruginosa (ATCC BAA-1744) [3] | MIC MRSA ATCC BAA-1556 [4] | MIC S. aureus ATCC 29213 (S. aureus ATCC 29213) | MIC P. aeruginosa ATCC 27883 [5] | MIC E. coli ATCC 25922 [6] | MIC K. pneumonia (ATCC BAA-1705) [7] | Broad-spectrum activity E. faecium (ATCC 27270) [8] | Broad-spectrum activity E. faecium (ATCC 700221) [9] | MIC K. pneumonia (ATCC 13883) [10] | Broad-spectrum activity E. faecalis (ATCC 29212) [11] | Broad-spectrum activity E. faecalis (ATCC 51575) [12] | Broad-spectrum activity S. pneumoniae (ATCC 49619) [13] | Broad-spectrum activity S. pneumoniae (ATCC 51938) [14] |
| --- | --- | --- | --- | --- | --- | --- | --- | --- | --- | --- | --- | --- | --- | --- | --- | --- | --- | --- |
| c[Arg-Arg-arg-arg-NaI-trp-NaI] [IFX-139] | 1.5 | 25 µg/mL | 3.1 | 12.5 µg/mL | 50 µg/mL | 50 µg/mL | 3.1 µg/mL | 3.1 µg/mL | 32 µg/mL | 32 µg/mL | 25 µg/mL | 3.1 | 6.2 | > 50 µg/mL | 6.2 | 6.2 | 25 | 12.5 |
| c[Arg-Arg-Arg-Arg-Dip-trp-Dip] [IFX-089] | 3.1 | 12.5 µg/mL | 12.5 | 12.5 µg/mL | 25 µg/mL | 25 µg/mL | 3.1 µg/mL | 3.1 µg/mL | 12.5 µg/mL | 12.5 µg/mL | 25 µg/mL | 6.2 | 12.5 | 50 µg/mL | 12.5 | 12.5 | 50 | 25 |
| c[arg-arg-Arg-Arg-NaI-trp-NaI] [IFX-140] | 1.5 | 25 µg/mL | 3.1 | 12.5 µg/mL | 25 µg/mL | 25 µg/mL | 3.1 µg/mL | 3.1 µg/mL | 32 µg/mL | 32 µg/mL | > 50 µg/mL | 3.1 | 6.2 | 50 µg/mL | 6.2 | 6.2 | 25 | 12.5 |
| c[Arg-arg-Arg-arg-dip-Trp-dip] [IFX-097] | 1.5 | 25 µg/mL | 6.2 | 12.5 µg/mL | 50 µg/mL | 50 µg/mL | 3.1 µg/mL | 3.1 µg/mL | 12.5 µg/mL | 12.5 µg/mL | 25 µg/mL | 3.1 | 6.2 | > 50 µg/mL | 6.2 | 12.5 | 50 | 25 |
| c[arg-arg-Arg-Arg-naI-Trp-naI] [IFX-136] | 1.5 | 12.5 µg/mL | 3.1 | 12.5 µg/mL | 50 µg/mL | 25 µg/mL | 3.1 µg/mL | 1.5 µg/mL | 32 µg/mL | 16 µg/mL | 25 µg/mL | 3.1 | 3.1 | 50 µg/mL | 6.2 | 6.2 | 25 | 12.5 |
